From US20130095520A1, “METHOD FOR DETECTION OF UROTHELIAL CANCER” (NATIONAL UNIVERSITY CORPORATION KOCHI UNIVERSITY, priority 2010, published 2013)
Counter-ions that a name gives are not always drawn.

System: cancer cells in the urine (urothelial / bladder cancer)
Assay: Detection of PPIX fluorescence in cells of urine collected after oral ALA hydrochloride (fluorescence microscopy of urinary sediment)
Type: in vivo, human
Conditions: 1 g ALA hydrochloride oral in 50 ml orange juice; patient suspected of bladder cancer (about 60 kg); urine collected after about 4 hours; FIG. 1
Protocol: 1 g of ALA hydrochloride was dissolved in 50 ml of orange juice, and was given to a patient suspected of having bladder cancer (body weight about 60 kg). Urine was collected after about 4 hours, which was immediately centrifuged (3000 rpm/min., 15 min.) in a light shielded state, and was confirmed by microscopic visualization using sediments. The microscope used was OLYMPUS BX50CCD mounted with camera OLYMPUS DP70. The mirror set was Exciter: XF1076 400AF30 Dichroic:XF2007 475DCLP, Emitter: XF3090 585ALP (OMEGA OPTICAL), all of which being a standard fluorescence microscope system.
The detection method was performed in the same way as Example 1, except that the dosage amount was changed to 500 mg, which is the half amount of Example 1.

## NCC(=O)CCC(=O)O [ALA hydrochloride, 5-aminolevulinic acid]
  PPIX fluorescence in cells separated from the urine: a clear PPIX fluorescence derived from cancer cell was observed
